Data from patent publication US20070281894A1, “PREPARATION AND UTILITY OF SUBSTITUTED ERYTHROMYCIN ANALOGS” (Auspex Pharmaceuticals, Inc., priority 2006, published 2007).

Conditions: topical or ocular, 5 microgram per mL
Protocol: Liver microsomal stability assays were conducted at 1 mg per mL liver microsome protein with an NADPH-generating system in 2% NaHCO3 (2.2 mM NADPH, 25.6 mM glucose 6-phosphate, 6 units per mL glucose 6-phosphate dehydrogenase and 3.3 mM MgCl2). Test compounds were prepared as solutions in 20% acetonitrile-water and added to the assay mixture (final assay concentration 5 microgram per mL) and incubated at 37° C. Final concentration of acetonitrile in the assay should be <1%. Aliquots (50 μL) were taken out at times 0, 15, 30, 45, and 60 minutes, and diluted with ice cold acetonitrile (200 μL) to stop the reactions. Samples were centrifuged at 12000 RPM for 10 minutes to precipitate proteins. Supernatants were transferred to microcentrifuge tubes and stored for LC/MS/MS analysis of the degradation half-life of the test compounds.

| increase in the degradation half-life as compared to the non-isotopically enriched drug (clarithromycin) | Compound |
| --- | --- |
| 10-400% | [2H]C([2H])([2H])O[C@]1(C)C[C@@H](C)C(=O)[C@H](C)[C@@H](O)[C@](C)(O)[C@@H](CC)OC(=O)[C@H](C)[C@@H](O[C@H]2C[C@@](C)(OC)[C@@H](O)[C@H](C)O2)[C@H](C)[C@H]1O[C@@H]1O[C@H](C)C[C@H](N(C)C)[C@H]1O [Example 8, d3-6-O-Methyl-Erythromycin A (d3-clarithromycin)] |
| 10-400% | [2H]C([2H])([2H])O[C@]1(C)C[C@@H](C)C(=O)[C@H](C)[C@@H](O)[C@](C)(O)[C@@H](CC)OC(=O)[C@H](C)[C@@H](O[C@H]2C[C@@](C)(OC)[C@@H](O)[C@H](C)O2)[C@H](C)[C@H]1O[C@@H]1O[C@H](C)C[C@H](N(C)C([2H])([2H])[2H])[C@H]1O [Example 11, d6-6-O-Methyl-Erythromycin A (d6-clarithromycin)] |
| 10-400% | [2H]C([2H])([2H])N(C)[C@H]1C[C@@H](C)O[C@@H](O[C@@H]2[C@@H](C)[C@H](O[C@H]3C[C@@](C)(OC)[C@@H](O)[C@H](C)O3)[C@@H](C)C(=O)O[C@H](CC)[C@@](C)(O)[C@H](O)[C@@H](C)C(=O)[C@H](C)C[C@@]2(C)OC)[C@@H]1O [Example 12, d3-6-O-Methyl-Erythromycin A (d3-clarithromycin)] |
